Data taken from patent publication US20040186089A1 (priority 2001, published 2004).
Converted amounts (≈) assume the structure as drawn. “And” between values parts separate entries of the source, which are not always exact repeats. Equal entries are not always repeated.

Experiments:
[1] = tested on: Bacillus anthracis ATCC 14578; format: cell-based; conditions: for MIC: unit assumed
Bacillus thuringiensis [2] = conditions: cited from earlier work
Bacillus anthracis [3] = conditions: in vivo; cited from earlier work
Bacillus thuringiensis [4] = format: cell-based
Bacillus cereus = format: cell-based
Bacillus anthracis [5] = conditions: cited from earlier work

Compound | MIC [1] [µg/mL] | susceptibility of Bacillus anthracis (Bacillus anthracis [5]) | also measured
CO[C@@]1(NC(=O)Cc2cccs2)C(=O)N2C(C(=O)O)=C(COC(N)=O)CS[C@@H]21 [Cefoxitin] | 6 (≈ 14 µM) |  | 
O=C(O)c1cn(C2CC2)c2cc(N3CCNCC3)c(F)cc2c1=O [Ciprofloxacin] | 0.064 (≈ 0.193 µM) |  | resistance of Bacillus thuringiensis (Bacillus thuringiensis [2]): not resistant; response of people (Bacillus anthracis [3]): responded well
C[C@@H](O)[C@H]1C(=O)N2C(C(=O)O)=C(S[C@@H]3CN[C@H](C(=O)Nc4cccc(C(=O)O)c4)C3)[C@H](C)[C@H]12 [Ertapenem, (1R,5S,6S,8R,2′S,4′S)-2-(2-(3-carboxyphenylcarbamoyl)pyrrolidin-4-ylthio)-6-(1-hydroxyethyl)-1-methylcarbapenem-3-carboxylic acid] | 0.032 (≈ 0.0673 µM) |  | susceptibility of Bacillus anthracis [1]: susceptible
C[C@@H](O)[C@H]1C(=O)N2C(C(=O)O)=C(SCCN=CN)C[C@H]12 [Imipenem, [5R-[5α,6α(R*)]]-6-(1-hydroxyethyl)-3-[[2-[(iminomethyl)amino]ethyl]thio]-7-oxo-1-azabicyclo[3.2.0]hept-2-ene-2-carboxylic acid monohydrate] | 0.047 |  | 
CCn1cc(C(=O)O)c(=O)c2cc(F)c(N3CCNCC3)cc21 [Norfloxacin] |  |  | Disk Diffusion zone (Bacillus thuringiensis [4]): 27 mm and 24 mm; Disk Diffusion zone (Bacillus cereus): 22 mm and 23 mm and 21 mm and 25 mm
CN(C)[C@@H]1C(O)=C(C(N)=O)C(=O)[C@@]2(O)C(O)=C3C(=O)c4c(O)cccc4[C@@](C)(O)[C@H]3C[C@@H]12 [Tetracycline] | 0.064 (≈ 0.144 µM) |  | 
CC1(C)S[C@@H]2[C@H](NC(=O)[C@H](N)c3ccccc3)C(=O)N2[C@H]1C(=O)O [ampicillin] |  |  | resistance of Bacillus thuringiensis (Bacillus thuringiensis [2]): resistant
O=C(N[C@H](CO)[C@H](O)c1ccc([N+](=O)[O-])cc1)C(Cl)Cl [chloramphenicol] |  | susceptible | 
CC[C@H]1OC(=O)[C@H](C)[C@@H](O[C@H]2C[C@@](C)(OC)[C@@H](O)[C@H](C)O2)[C@H](C)[C@@H](O[C@@H]2O[C@H](C)C[C@H](N(C)C)[C@H]2O)[C@](C)(O)C[C@@H](C)C(=O)[C@H](C)[C@@H](O)[C@]1(C)O [erythromycin] |  | susceptible | 
Penicillin | 0.047 | susceptible | resistance of Bacillus thuringiensis (Bacillus thuringiensis [2]): resistant
gentamicin |  | susceptible | 
